Laboratory results as given in PMC10689823, “Discovery of a Drug-like, Natural Product-Inspired DCAF11 Ligand Chemotype” (Nature Communications, 2023).
Where “and” joins values, the source holds several entries; their conditions need not be identical. Equal entries are not always repeated. One block for each molecule: values may come before it.

How the values were obtained:
BLK = biological target: T1, BLK (Homo sapiens, UniProt P51451); assay: BLK levels by Western blot in Ramos cells; type: cell-based
T1 construct: endogenous in cells; host or cells: Ramos
T1 sequence (P51451 whole entry): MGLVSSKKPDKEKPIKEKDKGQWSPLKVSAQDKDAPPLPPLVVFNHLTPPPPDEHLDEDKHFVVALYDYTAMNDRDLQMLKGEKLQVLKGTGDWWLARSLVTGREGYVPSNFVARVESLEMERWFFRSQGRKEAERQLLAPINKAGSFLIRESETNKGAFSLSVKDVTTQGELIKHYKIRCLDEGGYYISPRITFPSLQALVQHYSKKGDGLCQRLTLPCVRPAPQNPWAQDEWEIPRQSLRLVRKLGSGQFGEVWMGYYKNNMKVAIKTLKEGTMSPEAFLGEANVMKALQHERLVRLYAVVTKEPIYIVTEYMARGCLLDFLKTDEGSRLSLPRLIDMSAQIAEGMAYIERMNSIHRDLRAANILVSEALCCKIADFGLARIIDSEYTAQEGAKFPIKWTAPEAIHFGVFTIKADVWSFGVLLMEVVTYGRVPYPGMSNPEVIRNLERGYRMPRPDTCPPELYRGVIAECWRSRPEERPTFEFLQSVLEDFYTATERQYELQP
Method: (§1) Cells were washed with PBS and lysed in lysis buffer (50 mM Tris-HCl, pH 7.4, 150 mM NaCl, 1% Triton X-100, 1% sodium deoxycholate, 0.1% SDS) with complete protease inhibitor cocktail (Roche, 11836170001) for 30 min on ice. For Ramos cells, cell pellets were lysed in lysis buffer (50 mM Tris-HCl, pH 8, 150 mM NaCl, 1% NP-40, 0.5% sodium deoxycholate) with complete protease inhibitor cocktail. After centrifugation at 16,000 x g, the supernatant was transferred into a new tube and the protein concentration was determined by DC protein assay (BIO-RAD, 5000116). Proteins were separated by SDS-PAGE and transferred to a PVDF membrane (Thermo scientific, 0.45 μm, 88518). For PDEδ, BRD2, GAPDH, BRD4, Vinculin and BTK, the membranes were blocked with Intercept® Blocking Buffer (LI-COR Biosciences, 927-70001) at room temperature for 1 h. The primary antibodies for these proteins were diluted with Intercept® Blocking Buffer (1:500 for PDEδ, 1:3000 for Vinculin, and 1:1000 for other proteins) and incubated with the membranes overnight at 4 °C. Membranes were washed with PBS + 0.1% Tween 20 (PBS-T) five times and incubated with secondary antibodies conjugated to IRDye® Infrared Fluorescent Dyes (1:5000, LI-COR Biosciences) at room temperature for 1 h with protection from light. After washing the membrane, signals were visualized using the ChemiDoc MP Imaging System (BIO-RAD Laboratories). For detection of LC3B, BRD3, BLK, DCAF11, DDB1 RBX1, FIP200, V5- and FLAG-Tag the membranes were blocked with 5% milk in PBS-T at room temperature for 1 h. The primary antibodies for these proteins were diluted in 5% milk in PBS-T buffer (1:200 for BRD3, 1:1000 for other proteins) and incubated with the membranes overnight at 4 °C. Membranes were washed with PBS-T five times and incubated with HRP secondary antibodies (1:1500) at room temperature for 1 h. After washing the membrane, protein detection was performed using Western blotting detection reagent (Thermo Scientific, 34095) and the ChemiDoc MP Imaging System (BIO-RAD). Relative band intensities were quantified using Image Lab (BIO-RAD).

BTK = biological target: T2, BTK (Homo sapiens, UniProt Q06187); assay: BTK levels by Western blot in Ramos cells; type: cell-based; conditions: 6 h
T2 construct: endogenous in cells; host or cells: Ramos
T2 sequence (Q06187 whole entry): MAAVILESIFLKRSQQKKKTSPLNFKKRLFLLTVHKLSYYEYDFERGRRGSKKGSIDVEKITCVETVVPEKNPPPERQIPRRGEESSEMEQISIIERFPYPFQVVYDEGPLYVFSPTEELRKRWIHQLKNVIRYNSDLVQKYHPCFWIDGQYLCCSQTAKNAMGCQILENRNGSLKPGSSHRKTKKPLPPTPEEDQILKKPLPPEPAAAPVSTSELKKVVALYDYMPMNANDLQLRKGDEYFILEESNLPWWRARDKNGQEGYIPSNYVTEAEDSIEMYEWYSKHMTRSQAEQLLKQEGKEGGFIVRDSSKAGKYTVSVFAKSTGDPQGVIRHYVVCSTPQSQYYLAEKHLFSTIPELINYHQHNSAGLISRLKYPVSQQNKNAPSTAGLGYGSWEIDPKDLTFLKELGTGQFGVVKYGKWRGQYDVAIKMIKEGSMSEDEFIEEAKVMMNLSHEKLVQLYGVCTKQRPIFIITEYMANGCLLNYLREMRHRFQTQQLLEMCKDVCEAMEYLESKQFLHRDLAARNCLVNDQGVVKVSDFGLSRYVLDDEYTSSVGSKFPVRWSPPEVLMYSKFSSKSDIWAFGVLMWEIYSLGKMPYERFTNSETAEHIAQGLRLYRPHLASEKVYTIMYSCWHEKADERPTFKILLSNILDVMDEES
Method: as §1, with “After washing the membrane, signals were visualized using the ChemiDoc MP Imaging System (BIO-RAD Laboratories). For detection of LC3B, BRD3, BLK, DCAF11, DDB1 RBX1, FIP200, V5- and FLAG-Tag the membranes were blocked with 5% milk in PBS-T at room temperature for 1 h. The primary antibodies for these proteins were diluted in 5% milk in PBS-T buffer (1:200 for BRD3, 1:1000 for other proteins) and incubated with the membranes overnight at 4 °C. Membranes were washed with PBS-T five times and incubated with HRP secondary antibodies (1:1500) at room temperature for 1 h. After washing the membrane, protein detection was performed using Western blotting detection reagent (Thermo Scientific, 34095) and the ChemiDoc MP Imaging System (BIO-RAD).” left out

BRD2 [1] = biological target: BRD2 (Homo sapiens, UniProt P25440); assay: BRD2 levels by Western blot in Hep G2 and MDA-MB-231 cells (incl. RNA interference); type: cell-based; set-up: endogenous in cells; host or cells: Hep G2; MDA-MB-231; conditions: Hep G2 cells; 30 μM 15 for 1 h, then 10 μM 9 for 4 h
BRD2 (Homo sapiens, UniProt P25440), sequence (P25440 whole entry): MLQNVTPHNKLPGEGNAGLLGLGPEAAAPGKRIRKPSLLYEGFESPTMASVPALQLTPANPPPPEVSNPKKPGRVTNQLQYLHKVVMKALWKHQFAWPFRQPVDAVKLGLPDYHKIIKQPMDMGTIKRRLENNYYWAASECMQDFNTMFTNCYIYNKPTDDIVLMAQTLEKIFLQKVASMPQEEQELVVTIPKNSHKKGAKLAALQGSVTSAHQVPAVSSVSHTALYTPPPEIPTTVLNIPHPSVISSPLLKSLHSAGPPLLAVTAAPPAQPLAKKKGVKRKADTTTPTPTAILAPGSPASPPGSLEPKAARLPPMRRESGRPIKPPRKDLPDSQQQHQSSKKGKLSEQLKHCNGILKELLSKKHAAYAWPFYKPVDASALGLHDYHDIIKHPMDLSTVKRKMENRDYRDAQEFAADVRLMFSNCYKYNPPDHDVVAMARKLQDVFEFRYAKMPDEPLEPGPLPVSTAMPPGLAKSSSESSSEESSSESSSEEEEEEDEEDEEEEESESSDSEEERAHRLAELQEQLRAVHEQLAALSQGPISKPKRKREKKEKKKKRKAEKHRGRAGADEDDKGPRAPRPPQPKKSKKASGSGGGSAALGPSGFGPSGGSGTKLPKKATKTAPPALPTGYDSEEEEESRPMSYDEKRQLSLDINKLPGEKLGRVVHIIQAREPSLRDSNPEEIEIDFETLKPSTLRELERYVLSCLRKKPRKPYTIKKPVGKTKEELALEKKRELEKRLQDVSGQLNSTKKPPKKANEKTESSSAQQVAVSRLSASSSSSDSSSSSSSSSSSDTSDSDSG
Method: as §1

Jurkat cells = assay: Cell viability assay (CellTiter-Glo) in Jurkat cells; type: cell-based; conditions: for Relative cell viability (%): Fig. 4k; for Cell viability (%) relative to DMSO: individual replicates, Supplementary Fig. 7g
Method in brief: (§2)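 Jurkat and Hep G2 cells were exposed to compounds for 72 h, with an untreated plate counted at time zero. Viability was read as CellTiter-Glo luminescence after 10 min reagent incubation at room temperature.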

[2] = as above; type: cell-based; conditions: human, Jurkat cells
Method in brief: as §2

Hep G2 cells = assay: Cell viability assay (CellTiter-Glo) in Hep G2 cells; type: cell-based; conditions: Homo sapiens, HepG2, 72 h
Method: Jurkat cells (3 × 10^3) and Hep G2 cells (3.5 × 10^3) were seeded in 96-well plates in 100 μL culture medium. Cells were treated with compounds dissolved in 50 μl medium at the indicated concentration for 72 h, at the same time, one plate of cells without compounds treatment was used for the cell count at time zero. After adding 40 μl of CellTiter-Glo® reagent (Promega, G7571) to each well for 10 min at room temperature, the luminescence was measured on a Spark® Multimode Microplate Reader (Tecan). The data was analyzed by the GraphPad Prism 9.0.

SIRT5 = biological target: T3, SIRT5 (Homo sapiens, UniProt Q9NXA8); assay: SIRT activity assay SIRT5; type: biochemical; conditions: SIRT5 activity in presence of 3 µM compound 42
T3 construct: purchased BPS Bioscience 50085 (assay kit)
T3 sequence (Q9NXA8 37-310): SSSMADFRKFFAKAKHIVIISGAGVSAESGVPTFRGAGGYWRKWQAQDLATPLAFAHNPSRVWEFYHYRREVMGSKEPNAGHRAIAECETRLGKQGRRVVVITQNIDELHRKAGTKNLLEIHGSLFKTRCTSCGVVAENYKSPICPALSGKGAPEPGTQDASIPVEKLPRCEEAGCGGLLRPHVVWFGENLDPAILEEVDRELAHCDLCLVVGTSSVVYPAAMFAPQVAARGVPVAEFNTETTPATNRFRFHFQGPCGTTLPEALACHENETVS
Method: (§3) In vitro enzymatic SIRT assays were performed by BPS Bioscience for SIRT1, SIRT2, SIRT3, SIRT5 and SIRT6 using the respective SIRT Fluorogenic Assay Kit (BPS Bioscience, catalog numbers 50081, 50087, 50088, 50085 and 50022). The compound was pre-incubated in for 30 min at room temperature in a mixture containing SIRT assay buffer, 5 μg BSA, SIRT enzyme. Afterwards, the enzymatic reaction was initiated by the addition of SIRT substrate to a final concentration of 10 μM. The enzymatic reaction proceeded for 30 min at 37 °C followed by the addition of 2 x SIRT Developer and incubation at room temperature for 15 min. Fluorescence intensity was measured at an ex/em 360/460 nm using a Tecan Infinite M1000 microplate reader.

BRD2 [3] = assay: In-Cell Western for BRD2 levels in Hep G2 cells; type: cell-based; conditions: then 9 (10 μM, 4 h)
Method: Hep G2 cells were seeded in 96-well plates and incubated for 24 h. Compounds were added for the indicated time at the indicated concentration. Cells were then washed once with PBS and fixed with 4% paraformaldehyde for 30 min at room temperature. The fixed cells were permeabilized with 0.5 % Triton-X100 for 15 min followed by block with Intercept® Blocking Buffer (LI-COR Biosciences, 927-70001) for 1 h at room temperature. Primary antibodies for BRD2 (1:800) and Vinculin (1:2000) were diluted with LI-COR buffer and incubated with the cells at 4 °C overnight. Cells were washed with PBS-T, and the secondary antibodies conjugated to IRDye (1:1000, LI-COR Biosciences) were added to the cells for 1 h at room temperature. After washing the cells, the signal was recorded with the Odyssey® CLx Infrared Imaging System (LI-COR Biosciences) and the protein levels were analyzed by Image Studio (LI-COR Biosciences). BRD2 protein levels were normalized to the levels of reference protein vinculin.

[4] = tested on: wildtype and mutant 482 kinases; assay: Kinase profiling (SelectScreen); type: biochemical; conditions: 10 µM; panel of 482 wildtype and mutant kinases
Method: Compound 42 was profiled in duplicate at 10 µM against wildtype and mutant 482 kinases using the SelectScreen Kinase profiling services (ThermoFisher Scientific, USA) using enzymatic assays (Z’-Lyte and Adapta technology) or binding assays (LanthaScreen Eu kinase binding assays) (see https://www.thermofisher.com/de/de/home/products-and-services/services/custom-services/screening-and-profiling-services/selectscreen-profiling-service/selectscreen-kinase-profiling-service.html).

SIRT3 = biological target: T4, SIRT3 (Homo sapiens, UniProt Q9NTG7); assay: SIRT activity assay SIRT3; type: biochemical; conditions: SIRT3 activity in presence of 3 µM compound 42
T4 construct: purchased BPS Bioscience 50088 (assay kit)
T4 sequence (Q9NTG7 whole entry): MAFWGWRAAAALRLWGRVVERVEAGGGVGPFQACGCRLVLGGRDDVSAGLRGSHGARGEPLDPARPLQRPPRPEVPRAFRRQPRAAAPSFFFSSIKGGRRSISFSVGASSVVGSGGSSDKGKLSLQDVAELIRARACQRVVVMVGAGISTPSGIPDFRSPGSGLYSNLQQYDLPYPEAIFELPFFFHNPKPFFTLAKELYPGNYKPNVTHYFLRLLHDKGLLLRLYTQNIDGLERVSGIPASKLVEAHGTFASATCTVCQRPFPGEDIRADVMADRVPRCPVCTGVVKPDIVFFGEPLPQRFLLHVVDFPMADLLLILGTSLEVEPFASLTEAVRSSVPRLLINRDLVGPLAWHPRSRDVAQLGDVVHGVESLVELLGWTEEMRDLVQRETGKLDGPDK
Method: as §3

SIRT1 = biological target: T5, SIRT1 (Homo sapiens, UniProt Q96EB6); assay: SIRT activity assay SIRT1; type: biochemical; conditions: SIRT1 activity in presence of 3 µM compound 42
T5 construct: purchased BPS Bioscience 50081 (assay kit)
T5 sequence (Q96EB6 whole entry): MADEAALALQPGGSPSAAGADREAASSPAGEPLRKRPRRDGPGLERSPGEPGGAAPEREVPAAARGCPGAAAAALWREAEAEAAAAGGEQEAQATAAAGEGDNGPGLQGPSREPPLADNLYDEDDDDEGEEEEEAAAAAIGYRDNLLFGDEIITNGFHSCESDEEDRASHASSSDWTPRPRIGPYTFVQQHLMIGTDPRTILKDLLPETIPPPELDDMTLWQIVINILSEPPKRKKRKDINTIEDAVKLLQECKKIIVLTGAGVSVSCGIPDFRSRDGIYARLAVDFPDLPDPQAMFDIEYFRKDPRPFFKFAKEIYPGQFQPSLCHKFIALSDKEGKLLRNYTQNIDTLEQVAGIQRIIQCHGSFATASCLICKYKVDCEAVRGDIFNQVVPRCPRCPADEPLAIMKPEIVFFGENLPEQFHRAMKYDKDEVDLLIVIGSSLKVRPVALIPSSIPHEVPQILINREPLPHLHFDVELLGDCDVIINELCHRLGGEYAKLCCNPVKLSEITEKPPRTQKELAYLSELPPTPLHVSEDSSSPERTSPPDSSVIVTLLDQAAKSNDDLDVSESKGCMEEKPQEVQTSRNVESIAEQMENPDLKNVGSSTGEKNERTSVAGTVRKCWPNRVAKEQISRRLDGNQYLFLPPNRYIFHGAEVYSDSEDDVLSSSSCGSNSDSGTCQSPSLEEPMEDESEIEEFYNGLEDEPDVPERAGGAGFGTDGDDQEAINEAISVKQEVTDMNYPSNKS
Method: as §3

SIRT2 = biological target: T6, SIRT2 (Homo sapiens, UniProt Q8IXJ6); assay: SIRT activity assay SIRT2; type: biochemical; conditions: SIRT2 activity in presence of 3 µM compound 42
T6 construct: purchased BPS Bioscience 50087 (assay kit)
T6 sequence (Q8IXJ6 whole entry): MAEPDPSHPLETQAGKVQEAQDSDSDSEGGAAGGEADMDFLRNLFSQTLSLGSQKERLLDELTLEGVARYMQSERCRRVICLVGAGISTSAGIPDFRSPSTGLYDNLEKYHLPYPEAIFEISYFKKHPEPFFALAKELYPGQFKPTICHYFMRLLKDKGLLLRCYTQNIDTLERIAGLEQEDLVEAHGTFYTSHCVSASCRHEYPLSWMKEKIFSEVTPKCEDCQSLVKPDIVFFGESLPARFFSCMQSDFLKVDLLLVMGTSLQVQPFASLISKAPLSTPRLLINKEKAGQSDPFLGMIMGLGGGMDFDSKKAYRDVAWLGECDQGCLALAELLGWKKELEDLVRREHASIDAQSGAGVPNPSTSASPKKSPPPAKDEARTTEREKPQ
Method: as §3

SIRT6 = biological target: T7, SIRT6 (Homo sapiens, UniProt Q8N6T7); assay: SIRT activity assay SIRT6; type: biochemical; conditions: SIRT6 activity in presence of 3 µM compound 42
T7 construct: purchased BPS Bioscience 50022 (assay kit)
T7 sequence (Q8N6T7 whole entry): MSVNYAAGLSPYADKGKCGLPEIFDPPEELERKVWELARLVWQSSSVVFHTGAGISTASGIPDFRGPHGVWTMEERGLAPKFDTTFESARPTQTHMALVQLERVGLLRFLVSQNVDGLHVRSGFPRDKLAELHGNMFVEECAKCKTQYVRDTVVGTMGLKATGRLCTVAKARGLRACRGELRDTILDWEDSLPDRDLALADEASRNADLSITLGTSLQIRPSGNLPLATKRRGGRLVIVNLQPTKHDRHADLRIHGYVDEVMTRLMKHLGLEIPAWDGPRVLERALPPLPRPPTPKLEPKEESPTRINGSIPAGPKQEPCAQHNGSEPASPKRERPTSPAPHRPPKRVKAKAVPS
Method: as §3

SMILES: Nc1ncnc2c1c(-c1ccc(Oc3ccccc3)cc1)nn2C1CCN(CC(=O)NCCOCCOCCOCCOCCNC(=O)COc2c(Br)cc(/C=C3\C(=O)Nc4ccc(Br)cc43)cc2Br)CC1 [Compound 13]
BLK/Vinculin intensity (relative to DMSO control group) (BLK; 3 μM, 6 h, Fig. 2g): 37.145 and 35.6045 and 46.4487 | BLK/Vinculin intensity (relative to DMSO control group) (BLK; 10 μM, 6 h, Fig. 2g): 21.4399 and 23.7367 and 36.6727 | BLK/Vinculin intensity (relative to DMSO control group) (BLK; 30 μM, 6 h, Fig. 2g): 37.0963 and 39.3424 and 67.6199 | reduction of BLK levels (BLK; Ramos cells, 6 h): 70% | BLK/Vinculin intensity (relative to DMSO control group) (BLK; Ramos cells, pretreated CFZ 1 μM 40 min, then 10 μM, 6h, Fig. 2h): 73.6122 and 85.1867 and 106.763 | BLK/Vinculin intensity (relative to DMSO control group) (BLK; Ramos cells, pretreated CQ 50 μM 40 min, then 10 μM, 6h, Fig. 2h): 24.1946 and 36.2698 and 40.4347 | BLK/Vinculin intensity (relative to DMSO control group) (BLK; Ramos cells, pretreated MLN4924 1 μM 40 min, then 10 μM, 6h, Fig. 2h): 110.614 and 82.1333 and 144.155 | reduction of BTK levels (BTK): 50%

effect of pretreatment on BRD2 degradation by 9 (BRD2 [1]): impaired the degradation of BRD2 | GI50 (Jurkat cells; Homo sapiens, Jurkat cells, 72 h): 1.7 ± 0.2 µM
SMILES: COCCCN(C(=O)CCl)C(C(=O)NCc1ccccc1)c1ccc(Cl)c(Cl)c1 (centres unmarked) [Compound 15, reference compound]
Relative cell viability (%) (Jurkat cells; Jurkat cells, 72 h, 10 nM, 0.01 µM): 107.976% and 98.062% | Relative cell viability (%) (Jurkat cells; Jurkat cells, 72 h, 30 nM, 0.03 µM): 111.548% and 108.416% | Relative cell viability (%) (Jurkat cells; Jurkat cells, 72 h, 100 nM, 0.1 µM): 104.746% and 97.0657% | Relative cell viability (%) (Jurkat cells; Jurkat cells, 72 h, 300 nM, 0.3 µM): 101.886% and 95.5624% | Relative cell viability (%) (Jurkat cells; Jurkat cells, 72 h, 1000 nM, 1 µM): 76.2485% and 79.6366% | Relative cell viability (%) (Jurkat cells; Jurkat cells, 72 h, 3000 nM, 3 µM): -0.04609% and 0.01061% and 0.06492% | Relative cell viability (%) (Jurkat cells; Jurkat cells, 72 h, 10000 nM, 10 µM): -0.2034% and -0.1473% and -0.1406% | Relative cell viability (%) (Jurkat cells; Jurkat cells, 72 h, 30000 nM, 30 µM): -0.2515% and -0.2135% and -0.2133% | Cell viability (%) relative to DMSO (Jurkat cells; concentration 10 nmol/L): 93.1923% and 103.02% | Cell viability (%) relative to DMSO (Jurkat cells; concentration 30 nmol/L): 89.995% and 103.027% | Cell viability (%) relative to DMSO (Jurkat cells; concentration 100 nmol/L): 81.9055% and 90.259% and 101.913% | Cell viability (%) relative to DMSO (Jurkat cells; concentration 300 nmol/L): 82.6491% and 87.803% and 104.249% | Cell viability (%) relative to DMSO (Jurkat cells; concentration 1000 nmol/L): 80.0935% and 85.5797% and 108.086% | Cell viability (%) relative to DMSO (Jurkat cells; concentration 3000 nmol/L): 49.5057% and 68.1876% and 85.0918% | Cell viability (%) relative to DMSO (Jurkat cells; concentration 10000 nmol/L): 0.002496% and -0.07521% and -0.05875% | Cell viability (%) relative to DMSO (Jurkat cells; concentration 30000 nmol/L): -0.1172% and -0.221% and -0.2298% | viability at 72 h, 10 nmol/L ([2]; concentration 10 nmol/L, individual replicates, Supplementary Fig. 7g, read-out: Cell viability (%) relative to DMSO): 90.9% | viability at 72 h, 30 nmol/L ([2]; concentration 30 nmol/L, individual replicates, Supplementary Fig. 7g, read-out: Cell viability (%) relative to DMSO): 89% | viability at 72 h, 0.01 µM ([2]; 72 h, 10 nM, Fig. 4k, read-out: Relative cell viability (%)): 98.2% | viability at 72 h, 0.03 µM ([2]; 72 h, 30 nM, Fig. 4k, read-out: Relative cell viability (%)): 95.3% | viability at 72 h, 0.1 µM ([2]; 72 h, 100 nM, Fig. 4k, read-out: Relative cell viability (%)): 97.5% | viability at 72 h, 0.3 µM ([2]; 72 h, 300 nM, Fig. 4k, read-out: Relative cell viability (%)): 89.8% | viability at 72 h, 1 µM ([2]; 72 h, 1000 nM, Fig. 4k, read-out: Relative cell viability (%)): 69.4% | GI50 (Hep G2 cells): 6.5 ± 1.8 µM

SMILES: O=C1Nc2ccc(Br)cc2C1=Cc1cc(Br)c(OCCO)c(Br)c1 [Compound 42]
Activity [%] (N=1) (SIRT5): 95% | Activity [%] (N=2) (SIRT5): 98% | BRD2/Vinculin intensity (relative to control group) (BRD2 [3]; Hep G2 cells, pretreated with compound at 30 μM 1 h, single repeats, Fig. 4h): 46.6052 and 52.1075 and 59.9094 and 63.5387 | Value (Mean ± SD): Relative BRD2 levels remaining in Hep G2 cells after treatment with compounds followed by treatment with 9, with DMSO control for normalization (BRD2 [3]; qualitative ICW assay, pretreated at 30 μM 1 h, Supplementary Table 1): 55.54 ± 6.61 | number of wildtype kinases inhibited by more than 50 % [4]: seven | Activity [%] (N=1) (SIRT3): 67% | Activity [%] (N=2) (SIRT3): 67% | Activity [%] (N=1) (SIRT1): 93% | Activity [%] (N=2) (SIRT1): 97% | Activity [%] (N=1) (SIRT2): 104% | Activity [%] (N=2) (SIRT2): 111% | Activity [%] (N=1) (SIRT6): 87% | Activity [%] (N=2) (SIRT6): 90%
